This is an account of results in PubChem BioAssay AID282 (DTP/NCI, 2004).

This experiment has as its system BDF1 mice, L1210 terephthalanilide-resistant leukemia ip, survival T/C. Nature of the experiment: NCI In Vivo Anticancer Drug Screen. Data for tumor model L1210 Leukemia resistant to A Terephthalanilide; NSC 38280 (intraperitoneal) in B6D2F1 (BDF1) mice. The conditions noted are these: endpoint: mean survival time, higher = longer survival. Here is the method:
The antitumor activity of compounds was measured in mice bearing transplantable tumors. Survival or tumor size were measured and the results are expressed as the measurement made in the treated group (T) divided by the measurement made in the vehicle treated control group (C). The tumor model used in this assay is L1210 Leukemia resistant to A Terephthalanilide; NSC 38280 (intraperitoneal) in B6D2F1 (BDF1) mice

The mark [1] stands for this setting: dose: 2.5 mg/kg/injection, schedule: Q01DX010 (ip), vehicle: saline.
The mark [2] stands for this setting: dose: 2.5 mg/kg/injection, schedule: Q01DX Z (ip), vehicle: carboxymethylcellulose (CMC).
Setting [3] is: dose: 5.0 mg/kg/injection, schedule: Q01DX010 (ip), vehicle: saline.
[4] abbreviates: dose: 5.0 mg/kg/injection, schedule: Q01DX Z (ip), vehicle: carboxymethylcellulose (CMC).
[5] abbreviates: dose: 10.0 mg/kg/injection, schedule: Q01DX Z (ip), vehicle: carboxymethylcellulose (CMC).
Setting [6] is: dose: 15.0 mg/kg/injection, schedule: Q01DX Z (ip), vehicle: carboxymethylcellulose (CMC).
Where [7] appears, read: dose: 20.0 mg/kg/injection, schedule: Q01DX Z (ip), vehicle: carboxymethylcellulose (CMC).
The mark [8] stands for this setting: dose: 6.0 mg/kg/injection, schedule: Q01DX010 (ip), vehicle: saline.
Where [9] appears, read: dose: 8.0 mg/kg/injection, schedule: Q01DX010 (ip), vehicle: saline.
Setting [10] is: dose: 4.0 mg/kg/injection, schedule: Q01DX010 (ip), vehicle: saline.
Where [11] appears, read: dose: 25.0 mg/kg/injection, schedule: Q01DX010 (ip), vehicle: saline.
Where [12] appears, read: dose: 50.0 mg/kg/injection, schedule: Q01DX010 (ip), vehicle: saline.
Setting [13] is: dose: 100.0 mg/kg/injection, schedule: Q01DX010 (ip), vehicle: saline.
The mark [14] stands for this setting: dose: 12.5 mg/kg/injection, schedule: Q01DX010 (ip), vehicle: saline.

Molecules are shown by their SMILES. Where “and” joins values, the source holds several entries; their conditions need not be identical. Equal values may be shown once. Toxic doses and inconclusive results are not listed.

As for `Nc1nc(=S)c2[nH]cnc2[nH]1`, the T/C was 165 % of control (dose: 0.5 mg/kg/injection, schedule: Q01DX Z (ip), vehicle: carboxymethylcellulose (CMC)); 158 % of control (dose: 1.0 mg/kg/injection, schedule: Q01DX Z (ip), vehicle: carboxymethylcellulose (CMC)); 156 % of control (dose: 1.25 mg/kg/injection, schedule: Q01DX010 (ip), vehicle: saline); 173 % of control under setting [1]; 159 % of control under setting [2]; 108 % of control and 113 % of control under setting [3]. Besides, the T/C by setting is: under setting [4], 109 % of control; (dose: 10.0 mg/kg/injection, schedule: Q01DX010 (ip), vehicle: saline) 90 % of control and 98 % of control; under setting [5], 96 % of control and 116 % of control; under setting [6], 106 % of control; under setting [7], 96 % of control and 101 % of control; (dose: 31.0 micrograms/kg/injection, schedule: Q01DX Z (ip), vehicle: carboxymethylcellulose (CMC)) 107 % of control. The T/C (dose: 125.0 micrograms/kg/injection, schedule: Q01DX Z (ip), vehicle: carboxymethylcellulose (CMC)) is 110 % of control.
`O=C(Nc1ccc(C2=NCCN2)cc1)c1ccc(C(=O)Nc2ccc(C3=NCCN3)cc2)c([N+](=O)[O-])c1`: the T/C runs as follows: under setting [8], 102 % of control and 108 % of control; under setting [9], 100 % of control and 113 % of control; (dose: 12.0 mg/kg/injection, schedule: Q01DX010 (ip), vehicle: saline) 112 % of control and 119 % of control; (dose: 18.0 mg/kg/injection, schedule: Q01DX010 (ip), vehicle: saline) 89 % of control and 95 % of control.
For `Nc1nc(=S)c2ncn(C3OC(CO)C(O)C3O)c2[nH]1` (stereo not given), the T/C is 117 % of control (dose: 0.13 mg/kg/injection, schedule: Q01DX Z (ip), vehicle: carboxymethylcellulose (CMC)); 120 % of control (dose: 0.3 mg/kg/injection, schedule: Q01DX Z (ip), vehicle: carboxymethylcellulose (CMC)); 182 % of control (dose: 1.25 mg/kg/injection, schedule: Q01DX Z (ip), vehicle: carboxymethylcellulose (CMC)); 157 % of control and 179 % of control (dose: 2.0 mg/kg/injection, schedule: Q01DX010 (ip), vehicle: saline); 151 % of control under setting [2]; 86 % of control and 110 % of control under setting [10]. In addition, the T/C was 155 % of control under setting [4], 98 % of control under setting [9], 111 % of control under setting [6] and 102 % of control under setting [7].
Take `O=c1c(O)cccc2cc(O)c(O)c(O)c12`: the T/C by setting is: under setting [11], 98 % of control; under setting [12], 93 % of control; under setting [13], 89 % of control.
In the case of `CC(=O)Nc1ccc2nc3ccc(NC(C)=O)cc3[n+](-c3ccccc3)c2c1`, the T/C by setting is: under setting [5], 108 % of control; under setting [14], 107 % of control; under setting [7], 117 % of control; under setting [11], 109 % of control and 110 % of control; under setting [12], 121 % of control and 104 % of control; under setting [13], 106 % of control and 112 % of control. Further, the T/C runs as follows: (dose: 150.0 mg/kg/injection, schedule: Q01DX Z (ip), vehicle: carboxymethylcellulose (CMC)) 121 % of control; (dose: 300.0 mg/kg/injection, schedule: Q01DX Z (ip), vehicle: carboxymethylcellulose (CMC)) 120 % of control; (dose: 400.0 mg/kg/injection, schedule: Q01DX Z (ip), vehicle: carboxymethylcellulose (CMC)) 91 % of control.
With `O=c1cn[nH]c(=O)[nH]1`, the T/C is 101 % of control (dose: 62.0 mg/kg/injection, schedule: Q01DX Z (ip), vehicle: carboxymethylcellulose (CMC)); 97 % of control and 101 % of control (dose: 62.5 mg/kg/injection, schedule: Q01DX010 (ip), vehicle: saline); 97 % of control and 105 % of control (dose: 125.0 mg/kg/injection, schedule: Q01DX010 (ip), vehicle: saline); 101 % of control (dose: 125.0 mg/kg/injection, schedule: Q01DX Z (ip), vehicle: carboxymethylcellulose (CMC)); 106 % of control and 113 % of control (dose: 250.0 mg/kg/injection, schedule: Q01DX010 (ip), vehicle: saline); 106 % of control (dose: 250.0 mg/kg/injection, schedule: Q01DX Z (ip), vehicle: carboxymethylcellulose (CMC)). For the same molecule, the T/C was 123 % of control and 115 % of control (dose: 500.0 mg/kg/injection, schedule: Q01DX010 (ip), vehicle: saline); 113 % of control (dose: 500.0 mg/kg/injection, schedule: Q01DX Z (ip), vehicle: carboxymethylcellulose (CMC)).
Take `NC(Cc1ccc(N(CCCl)CCCl)cc1)C(=O)O` (stereo not given): the T/C runs as follows: (dose: 0.31 mg/kg/injection, schedule: Q01DX Z (ip), vehicle: carboxymethylcellulose (CMC)) 113 % of control; (dose: 0.62 mg/kg/injection, schedule: Q01DX Z (ip), vehicle: carboxymethylcellulose (CMC)) 114 % of control; (dose: 2.0 mg/kg/injection, schedule: Q01DX Z (ip), vehicle: carboxymethylcellulose (CMC)) 174 % of control; under setting [1], 183 % of control; under setting [2], 162 % of control; (dose: 4.0 mg/kg/injection, schedule: Q01DX Z (ip), vehicle: carboxymethylcellulose (CMC)) 184 % of control. Further, the T/C is 166 % of control under setting [3]; 212 % of control under setting [4]; 172 % of control (dose: 7.5 mg/kg/injection, schedule: Q01DX Z (ip), vehicle: carboxymethylcellulose (CMC)); 181 % of control under setting [5]; 120 % of control under setting [6].
With `O=C(Nc1ccc(NC(=O)Nc2cccc(C3=NCCN3)c2)cc1)Nc1cccc(C2=NCCN2)c1`, the T/C (dose: 60.0 mg/kg/injection, schedule: Q01DX Z (ip), vehicle: carboxymethylcellulose (CMC)) is 96 % of control; the T/C (dose: 120.0 mg/kg/injection, schedule: Q01DX Z (ip), vehicle: carboxymethylcellulose (CMC)) was 106 % of control; the T/C (dose: 240.0 mg/kg/injection, schedule: Q01DX Z (ip), vehicle: carboxymethylcellulose (CMC)) is 106 % of control.
Turning to `CN(C)c1ccc(/C=C/c2ccnc3ccccc23)cc1`, the T/C under setting [10] is 96 % of control and 97 % of control; the T/C (dose: 6.25 mg/kg/injection, schedule: Q01DX Z (ip), vehicle: saline) was 90 % of control; the T/C under setting [9] is 100 % of control and 101 % of control; the T/C (dose: 12.5 mg/kg/injection, schedule: Q01DX Z (ip), vehicle: saline) was 100 % of control; the T/C (dose: 16.0 mg/kg/injection, schedule: Q01DX010 (ip), vehicle: saline) was 99 % of control and 100 % of control; the T/C (dose: 25.0 mg/kg/injection, schedule: Q01DX Z (ip), vehicle: saline) is 100 % of control. Also, the T/C by setting is: (dose: 32.0 mg/kg/injection, schedule: Q01DX010 (ip), vehicle: saline) 101 % of control; (dose: 50.0 mg/kg/injection, schedule: Q01DX Z (ip), vehicle: saline) 90 % of control; (dose: 75.0 mg/kg/injection, schedule: Q01DX Z (ip), vehicle: saline) 96 % of control and 100 % of control; (dose: 100.0 mg/kg/injection, schedule: Q01DX Z (ip), vehicle: saline) 94 % of control and 108 % of control; (dose: 150.0 mg/kg/injection, schedule: Q01DX Z (ip), vehicle: saline) 96 % of control and 102 % of control; (dose: 200.0 mg/kg/injection, schedule: Q01DX Z (ip), vehicle: saline) 94 % of control.
As to `CNc1nc(Nc2ccc(C3=NCCN3)cc2)nc(Nc2ccc(C3=NCCN3)cc2)n1`, the T/C runs as follows: (dose: 13.3 mg/kg/injection, schedule: Q01DX010 (ip), vehicle: saline) 100 % of control; (dose: 20.0 mg/kg/injection, schedule: Q01DX010 (ip), vehicle: saline) 94 % of control; (dose: 30.0 mg/kg/injection, schedule: Q01DX010 (ip), vehicle: saline) 99 % of control; (dose: 45.0 mg/kg/injection, schedule: Q01DX010 (ip), vehicle: saline) 97 % of control.
Consider `S=P(N1CC1)(N1CC1)N1CC1`, for which the T/C (dose: 0.75 mg/kg/injection, schedule: Q01DX010 (ip), vehicle: saline) was 97 % of control and 115 % of control; the T/C (dose: 1.5 mg/kg/injection, schedule: Q01DX010 (ip), vehicle: saline) was 124 % of control and 105 % of control; the T/C (dose: 3.0 mg/kg/injection, schedule: Q01DX010 (ip), vehicle: saline) was 118 % of control; the T/C under setting [8] is 94 % of control and 100 % of control.
`CS(=O)(=O)OCCC(=O)N1CCN(C(=O)CCOS(C)(=O)=O)CC1`: the T/C under setting [14] was 106 % of control and 109 % of control; the T/C under setting [11] is 120 % of control; the T/C under setting [12] was 107 % of control; the T/C under setting [13] was 120 % of control.
